Measured values from patent US8158579B2, “Fusion protein of an exendin to modified transferrin” (BioRexis Pharmaceutical Corporation, priority 2006, dated 2012).
“And” between values parts separate entries of the source, which are not always exact repeats. Identical values can stand only once. Like-named read-outs stand apart in the source and are kept apart here.

Assays:
Diabetic (db/db) mice = experiment: blood glucose in diabetic (db/db) mice after subcutaneous injection; format: in vivo
human GLP-1 receptor = target: T1, human GLP-1 receptor (Homo sapiens, UniProt P43220); experiment: cell-based cAMP assay in CHO cells expressing the human GLP-1 receptor (FIG. 4)
T1 construct: expressed in transfected cells; host or cells: CHO
T1 sequence (P43220 24-463): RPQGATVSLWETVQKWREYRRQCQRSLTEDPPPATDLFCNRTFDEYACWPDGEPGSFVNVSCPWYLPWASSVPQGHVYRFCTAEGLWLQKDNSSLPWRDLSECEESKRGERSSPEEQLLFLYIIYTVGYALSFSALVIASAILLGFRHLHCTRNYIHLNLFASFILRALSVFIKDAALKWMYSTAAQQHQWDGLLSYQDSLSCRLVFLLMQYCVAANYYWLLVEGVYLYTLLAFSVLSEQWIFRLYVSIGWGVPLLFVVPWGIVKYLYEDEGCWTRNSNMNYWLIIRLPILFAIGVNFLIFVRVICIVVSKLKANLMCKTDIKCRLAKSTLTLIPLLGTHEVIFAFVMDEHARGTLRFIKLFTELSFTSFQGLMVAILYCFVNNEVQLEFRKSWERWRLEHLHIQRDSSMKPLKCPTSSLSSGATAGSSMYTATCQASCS

diabetic mice (db/db) = experiment: blood glucose in db/db mice after inhalation of aerosolized fusion protein; format: in vivo; details: inhalation exposure equivalent to 0.3, 1 and 3 mg/kg
From the text: (§1) Aerosols were generated with an Aerotech II compressed air jet nebulizer (CIS-US Inc., Bedford, Mass.) and directed through a 1.58 cm diameter stainless steel aerosol delivery line into a 24-port flow past rodent exposure system (IN-TOX, ABQ, NM). The exhaust flow rate out of the chamber was ˜11.5 L/min. The nebulizer pressure was maintained at ˜30 psi.

[1] = effect of aerosolization on integrity and activity of the fusion protein; format: physicochemical
From the text: as §1

[2] = cynomolgus monkey, in vivo, 1 mg/kg
rat GLP-1 receptor = target: T2, rat GLP-1 receptor (Rattus norvegicus, UniProt P32301); experiment: cAMP potency assay in CHO cells transfected with the rat GLP-1 receptor (CHO-GLP-1R); format: cell-based
T2 construct: expressed in transfected cells; host or cells: CHO (CHO-GLP-1R)
T2 sequence (P32301 22-463): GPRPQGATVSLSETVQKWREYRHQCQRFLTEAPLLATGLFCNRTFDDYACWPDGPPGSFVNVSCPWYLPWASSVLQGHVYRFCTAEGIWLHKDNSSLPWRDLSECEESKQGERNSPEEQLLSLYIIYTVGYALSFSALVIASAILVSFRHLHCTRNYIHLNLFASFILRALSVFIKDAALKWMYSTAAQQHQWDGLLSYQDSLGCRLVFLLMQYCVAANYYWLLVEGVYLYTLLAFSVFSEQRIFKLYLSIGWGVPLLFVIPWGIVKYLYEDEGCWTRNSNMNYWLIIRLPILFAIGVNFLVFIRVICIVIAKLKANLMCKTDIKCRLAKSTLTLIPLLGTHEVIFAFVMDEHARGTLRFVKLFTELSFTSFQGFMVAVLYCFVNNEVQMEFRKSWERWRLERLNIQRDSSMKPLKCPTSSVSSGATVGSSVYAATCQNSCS
Procedure: 96-well tissue culture plates were seeded with CHO-GLP-1R cells and cultured overnight. The following day, the cells were rinsed with Krebs-Ringer buffer (KRB) and incubated in KRB containing the phosphodiesterase inhibitor 3-isobutyl-1-methylxanthine (IBMX, 2 mM) to inhibit intracellular enzymes that process cAMP. Serial dilutions of test compounds and controls were prepared in KRB/IBMX and triplicate wells of cells were inoculated with samples and controls. After incubation, individual sample lysates were then assayed to measure the increase in intracellular cAMP levels using a competition-based fluorescent immunoassay (CatchPoint® cAMP Fluorescent Assay Kit, Molecular Devices Corp., Sunnyvale, Calif.).

[3] = target: T3, matrix metalloprotease I (MMP-1, collagenase) (Homo sapiens, UniProt P03956); format: in vitro ADME
T3 sequence (P03956 100-469): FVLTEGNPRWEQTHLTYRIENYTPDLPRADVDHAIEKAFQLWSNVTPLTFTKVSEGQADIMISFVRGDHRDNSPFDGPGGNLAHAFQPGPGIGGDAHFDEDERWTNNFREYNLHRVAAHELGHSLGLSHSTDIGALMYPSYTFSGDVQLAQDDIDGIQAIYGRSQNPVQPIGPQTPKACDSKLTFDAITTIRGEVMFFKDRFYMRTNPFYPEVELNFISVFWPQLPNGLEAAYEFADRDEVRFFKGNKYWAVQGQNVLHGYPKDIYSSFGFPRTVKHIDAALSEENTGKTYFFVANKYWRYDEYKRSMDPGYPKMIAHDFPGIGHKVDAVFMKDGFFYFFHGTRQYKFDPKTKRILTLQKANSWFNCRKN
From the text: This difference in degradation occurs despite the close similarity in amino acid sequence in the active portion of the molecules.

Sprague Dawley rats = experiment: rat body weight, daily subcutaneous injections; format: in vivo
From the text: The rats were weighed everyday (prior to dosing on dosing days). Animals had full access to food and water at all times.
By day five, the animals treated with 100 nmole/kg doses lost an average of 75 grams (17%) body weight compared to controls, and the weight loss is related to a drop in food and water intake. Because of the dramatic and acute weight loss observed, daily administration of the drug was stopped at day five. After the 5 day administration period, all animals gained weight at a similar rate.

mice = experiment: body weight in mice after a single dose; format: in vivo; details: for average drop in body weight: twenty-four hours after administration
From the text: Such a dose can also be administered once per two weeks or once per month.

[4] = mouse, in vivo, inhaled or intranasal
Procedure: The inhalation time in the chamber was chosen so that the animals would receive an exposure equivalent to the 0.3, 1 and 3 mg/kg dose administered subcutaneously. As a control, these doses were administered subcutaneously (SC) to compare in vivo activity to the inhaled route of administration.

exendin-4(1-39) (PEAPTD)2 (SEQ ID NO: 5) mTf fusion protein: exendin-4(1-39) (SEQ ID NO: 4) linked via linker (PEAPTD)2 to modified transferrin mTf (SEQ ID NO: 17); sequence SEQ ID NO: 23
time the almost normalized glucose level persisted (Diabetic (db/db) mice; all treatment groups): 24 h
dose that significantly reduced blood glucose (Diabetic (db/db) mice; by 3 hours after subcutaneous injection): ≤ 1.3 nmol/kg
effect on blood glucose compared with equivalent doses of the GLP-1(7-37,A8G,K34A) (PEAPTD)2 mTf fusion protein (Diabetic (db/db) mice; equivalent doses): significantly greater and of a longer duration
time at which glucose concentrations returned to pretreatment levels (Diabetic (db/db) mice; post-treatment, depending on the dose): 48 to 72 h
reduction in blood glucose (Diabetic (db/db) mice; reduction seen in db/db mice): approximately 70%
EC50 (human GLP-1 receptor; cell-based cAMP assay, FIG. 4): 0.0313 nM
potency relative to exendin-4 (fold less potent) (human GLP-1 receptor; in vitro, CHO cells expressing the human GLP-1 receptor): approximately 5 fold
blood glucose levels after inhalation (diabetic mice (db/db)): significant drop
effect of aerosolization on structure ([1]; 10 mg/mL in 10 mM histidine pH 7.4, 100 mM NaCl, nebulized, SDS-PAGE and SEC-HPLC): no detectable adverse effect on the structure
biological activity of material recovered after aerosolization ([1]; condensed liquid from the aerosol): biologically active
Vz ([2]; iv): 0.0659 ± 0.031 L/kg
λ z ([2]; iv): 0.0313 ± 0.0137 h − 1
F ([2]; sc): 49.0%
λ z ([2]; sc): 0.0252 ± 0.0084 h − 1
EC50 (rat GLP-1 receptor; cAMP accumulation in CHO-GLP-1R cells): 0.16 nM
potency relative to the GLP-1(7-37,A8G,K34A) (PEAPTD)2 mTf fusion protein (rat GLP-1 receptor; in vitro activation of the GLP-1 receptor): four-eight fold more potent
resistance to inactivation by MMP-1 [3]: resistant to inactivation by MMP-1
body weight loss (Sprague Dawley rats; 100 nmole/kg daily administration, rats): 17% and 16%
average body weight loss compared to controls (Sprague Dawley rats; 100 nmole/kg daily, by day five): 75 grams
body weight change (Sprague Dawley rats; 10 and 100 nmole/kg doses): lost weight after the first injection
body weight versus control animals after end of dosing (Sprague Dawley rats; 20 days following the last administration): still weighed less than the control animals
dose correlated with a reduction in animal body weight (mice; mice and rats): ≥ 10 nmol/kg
average drop in body weight (mice; single dose 10 nmole/kg): 6%
average drop in body weight (mice; single dose 100 nmole/kg): 14%
bioavailability [4]: approximately 10%
